Test results published in PMC9387934, “Randomized single oral dose phase 1 study of safety, tolerability, and pharmacokinetics of Iminosugar UV-4 Hydrochloride (UV-4B) in healthy subjects” (PLoS Neglected Tropical Diseases, 2022).
Structures can show the parent of a compound that is named as a salt. Where two headings read alike, the source gives them in different places.

Assay: Phase 1a single ascending dose study: UV-4 plasma concentrations and PK parameters (LC-MS/MS, noncompartmental)
Format: in vivo
Settings: for Tmax: median; for AUC(0-t): read-out: AUC(0-8); for Vd/F: read-out: Vz/F
Protocol: UV-4 ((2R,3R,4R,5S)-2-(hydroxymethyl)-1-(9-methoxynonyl)piperidine-3,4,5-triol, also called N-(9’-methoxynonyl)-1-deoxynojirimycin, or MON-DNJ) hydrochloride was evaluated in a first-in-human, randomized, single-center, double-blind, placebo-controlled, parallel group, single ascending dose Phase 1a clinical trial in healthy subjects (Figs 1 and 2, ClinicalTrials.gov Identifier NCT02061358 https://clinicaltrials.gov/ct2/show/NCT02061358). The primary objective was to determine the safety and tolerability of a single-ascending oral dose of UV-4 hydrochloride (Fig 3). […] The secondary objective was to determine PK parameters describing absorption and elimination of UV-4 following a single oral dose of UV-4 hydrochloride. Eight cohorts of eight subjects each were enrolled and completed the study. In each cohort, six subjects received UV-4 as the hydrochloride; two received placebo. Subjects were screened against study eligibility criteria up to four weeks (Days -28 to -2) before admission to the clinic (Day -1). Dosing was performed on an inpatient basis. Subjects remained in clinic for 48 hours post-dosing for PK sample collection and safety assessments and were discharged from the clinic on Day 3. Subjects returned to the clinic on Day 4 for additional safety assessments, then again on Day 9 ± 1 for a final follow-up visit.
Eligible subjects were healthy males and females, age 18–45 years, with a body mass index between 18 and 30 kg/m^2 inclusive and a minimum body weight of 60 kg. Subjects were considered healthy based on medical history, physical exam, vital signs, 12-lead electrocardiogram (ECG), clinical laboratory tests (hematology, blood chemistry, urinalysis), viral serology, and drug and alcohol screening. Male and female subjects of childbearing potential were required to use adequate contraception over the course of the clinical trial. […] Only subjects who met all inclusion and none of the exclusion criteria prior to administration of the investigational product were enrolled into the study (no exemptions were granted). A total of 64 subjects were enrolled (eight cohorts of eight subjects each). In each of the eight cohorts, six subjects were randomized to receive a single dose of UV-4 (3 to 1000 mg, depending on cohort) as the hydrochloride salt, and two subjects to receive placebo. Cohort size of six active subjects was based on analysis that increasing cohort size above six in a first-in-human study gains little in the ability to observe a drug induced event, and results in observing more events that are not related to study drug. Two of the eight subjects in each cohort (sentinel subjects; one active and one placebo) received their doses at least 48 h before the remaining subjects in each cohort.
On each day of use, bulk drug substance (UV-4B for solubilization, SAI Life Sciences Ltd. Telangana, India) was removed from a single-use container, weighed at the study center, and solubilized in 20 mL sterile water for injection (SWFI) (Hospira Inc. Illinois, United States of America). Weight of solid drug substance was converted to dose of UV-4 by applying purity and salt correction factor per pharmacy manual when preparing the dosing solution. UV-4B solution was administered orally with 10 mL of taste-masking agent, OraSweet-SF (Paddock Laboratories LLC, Minneapolis, United States of America) in a total volume of 30 mL, to assist in maintaining study blinding. Placebo was SWFI (20 mL) plus OraSweet-SF (10 mL). Concentrations and doses were calculated and expressed as the active free base form, UV-4. This methodology is consistent with USP<1121>, which recommends that the strength of a drug product or preparation is expressed in terms of the active moiety. Following consumption of active or placebo solution, the dosing container was rinsed with 50 mL of tap water also consumed by subjects. […]

[1] = 3 mg single oral dose, Geo Mean
[2] = 10 mg single oral dose, Ar Mean
[3] = 10 mg single oral dose, Geo Mean
[4] = 30 mg single oral dose, Ar Mean
[5] = 30 mg single oral dose, Geo Mean
[6] = 90 mg single oral dose, Ar Mean
[7] = 90 mg single oral dose, Geo Mean
[8] = 180 mg single oral dose, Ar Mean
[9] = 180 mg single oral dose, Geo Mean
[10] = 360 mg single oral dose, Ar Mean
[11] = 360 mg single oral dose, Geo Mean
[12] = 720 mg single oral dose, Ar Mean
[13] = 720 mg single oral dose, Geo Mean
[14] = 1000 mg single oral dose, Ar Mean
[15] = 1000 mg single oral dose, Geo Mean
[16] = both sexes, human, plasma, po, 3 mg, 3 mg single oral dose, Ar Mean
[17] = both sexes, human, plasma, po, 3 mg, 3 mg single oral dose, Geo Mean
[18] = both sexes, human, plasma, po, 10 mg, 10 mg single oral dose, Ar Mean
[19] = both sexes, human, plasma, po, 10 mg, 10 mg single oral dose, Geo Mean
[20] = both sexes, human, plasma, po, 30 mg, 30 mg single oral dose, Ar Mean
[21] = both sexes, human, plasma, po, 30 mg, 30 mg single oral dose, Geo Mean
[22] = both sexes, human, plasma, po, 90 mg, 90 mg single oral dose, Ar Mean
[23] = both sexes, human, plasma, po, 90 mg, 90 mg single oral dose, Geo Mean
[24] = both sexes, human, plasma, po, 180 mg, 180 mg single oral dose, Ar Mean
[25] = both sexes, human, plasma, po, 180 mg, 180 mg single oral dose, Geo Mean
[26] = both sexes, human, plasma, po, 360 mg, 360 mg single oral dose, Ar Mean
[27] = both sexes, human, plasma, po, 360 mg, 360 mg single oral dose, Geo Mean
[28] = both sexes, human, plasma, po, 720 mg, 720 mg single oral dose, Ar Mean
[29] = both sexes, human, plasma, po, 720 mg, 720 mg single oral dose, Geo Mean
[30] = both sexes, human, plasma, po, 1000 mg, 1000 mg single oral dose, Ar Mean
[31] = both sexes, human, plasma, po, 1000 mg, 1000 mg single oral dose, Geo Mean

Which results are given for `COCCCCCCCCCN1C[C@H](O)[C@@H](O)[C@H](O)[C@H]1CO` [UV-4B, N-(9’-methoxynonyl)-1-deoxynojirimycin hydrochloride]?
AUC(0-inf) (3 mg single oral dose, Ar Mean): 0.0956 µg·h/mL; CL/F (3 mg single oral dose, Ar Mean): 32.1 L/h; Cmax (3 mg single oral dose, Ar Mean): 0.0224 µg/mL; DNAUC(0-inf) (3 mg single oral dose, Ar Mean): 31.9 ng·h/mL/mg; DNCmax (3 mg single oral dose, Ar Mean): 7.45 ng/mL/mg; t1/2 (3 mg single oral dose, Ar Mean): 10.7 h; CL/F [1]: 31.7 L/h; Cmax [1]: 0.0221 µg/mL; DNAUC(0-inf) [1]: 31.5 ng·h/mL/mg; DNCmax [1]: 7.38 ng/mL/mg; t1/2 [1]: 10.3 h; Tmax (3 mg single oral dose): 0.50 h; CL/F [2]: 24.3 L/h; Cmax [2]: 0.0846 µg/mL; DNAUC(0-inf) [2]: 43.1 ng·h/mL/mg; DNCmax [2]: 8.46 ng/mL/mg; t1/2 [2]: 12.0 h; CL/F [3]: 23.8 L/h; Cmax [3]: 0.0826 µg/mL; DNAUC(0-inf) [3]: 42.0 ng·h/mL/mg; DNCmax [3]: 8.26 ng/mL/mg; t1/2 [3]: 11.9 h; Tmax (10 mg single oral dose): 1.00 h; CL/F [4]: 24.0 L/h; Cmax [4]: 0.293 µg/mL; DNAUC(0-inf) [4]: 42.0 ng·h/mL/mg; DNCmax [4]: 9.76 ng/mL/mg; t1/2 [4]: 10.0 h; CL/F [5]: 23.9 L/h; Cmax [5]: 0.289 µg/mL; DNAUC(0-inf) [5]: 41.8 ng·h/mL/mg; DNCmax [5]: 9.64 ng/mL/mg; t1/2 [5]: 9.98 h; Tmax (30 mg single oral dose): 0.50 h; CL/F [6]: 24.5 L/h; Cmax [6]: 0.946 µg/mL; DNAUC(0-inf) [6]: 41.4 ng·h/mL/mg; DNCmax [6]: 10.5 ng/mL/mg; t1/2 [6]: 10.4 h; CL/F [7]: 24.3 L/h; Cmax [7]: 0.9 µg/mL; DNAUC(0-inf) [7]: 41.1 ng·h/mL/mg; DNCmax [7]: 10.0 ng/mL/mg; t1/2 [7]: 10.2 h; Tmax (90 mg single oral dose): 0.50 h; CL/F [8]: 25.4 L/h; Cmax [8]: 2.15 µg/mL; DNAUC(0-inf) [8]: 39.5 ng·h/mL/mg; DNCmax [8]: 12.0 ng/mL/mg; t1/2 [8]: 8.71 h; CL/F [9]: 25.4 L/h; Cmax [9]: 2.06 µg/mL; DNAUC(0-inf) [9]: 39.4 ng·h/mL/mg; DNCmax [9]: 11.5 ng/mL/mg; t1/2 [9]: 8.66 h; Tmax (180 mg single oral dose): 0.75 h; CL/F [10]: 26.5 L/h; Cmax [10]: 4.57 µg/mL; DNAUC(0-inf) [10]: 38.4 ng·h/mL/mg; DNCmax [10]: 12.7 ng/mL/mg; t1/2 [10]: 8.14 h; CL/F [11]: 26.3 L/h; Cmax [11]: 4.49 µg/mL; DNAUC(0-inf) [11]: 38.1 ng·h/mL/mg; DNCmax [11]: 12.5 ng/mL/mg; t1/2 [11]: 8.11 h; Tmax (360 mg single oral dose): 0.50 h; CL/F [12]: 22.1 L/h; Cmax [12]: 9.93 µg/mL; DNAUC(0-inf) [12]: 45.7 ng·h/mL/mg; DNCmax [12]: 13.8 ng/mL/mg; t1/2 [12]: 8.19 h; CL/F [13]: 22.0 L/h; Cmax [13]: 9.76 µg/mL; DNAUC(0-inf) [13]: 45.5 ng·h/mL/mg; DNCmax [13]: 13.6 ng/mL/mg; t1/2 [13]: 8.18 h; Tmax (720 mg single oral dose): 0.75 h; CL/F [14]: 23.6 L/h; Cmax [14]: 13.1 µg/mL; DNAUC(0-inf) [14]: 43.1 ng·h/mL/mg; DNCmax [14]: 13.1 ng/mL/mg; t1/2 [14]: 8.83 h; CL/F [15]: 23.4 L/h; Cmax [15]: 13 µg/mL; DNAUC(0-inf) [15]: 42.8 ng·h/mL/mg; DNCmax [15]: 13.0 ng/mL/mg; t1/2 [15]: 8.58 h; Tmax (1000 mg single oral dose): 1.00 h; AUC(0-t) [16]: 0.0565 µg·h/mL; Vd/F [16]: 491 L; AUC(0-t) [17]: 0.0559 µg·h/mL; AUC(0-inf) (both sexes, human, plasma, po, 3 mg, 3 mg single oral dose, Geo Mean, read-out: AUC(0-inf)): 0.0946 µg·h/mL; Vd/F [17]: 470 L; AUC(0-t) [18]: 0.271 µg·h/mL; AUC(0-inf) (both sexes, human, plasma, po, 10 mg, 10 mg single oral dose, Ar Mean, read-out: AUC(0-inf)): 0.431 µg·h/mL; Vd/F [18]: 424 L; AUC(0-t) [19]: 0.265 µg·h/mL; AUC(0-inf) (both sexes, human, plasma, po, 10 mg, 10 mg single oral dose, Geo Mean, read-out: AUC(0-inf)): 0.42 µg·h/mL; Vd/F [19]: 409 L; AUC(0-t) [20]: 0.901 µg·h/mL; AUC(0-inf) (both sexes, human, plasma, po, 30 mg, 30 mg single oral dose, Ar Mean, read-out: AUC(0-inf)): 1.26 µg·h/mL; Vd/F [20]: 349 L; AUC(0-t) [21]: 0.896 µg·h/mL; AUC(0-inf) (both sexes, human, plasma, po, 30 mg, 30 mg single oral dose, Geo Mean, read-out: AUC(0-inf)): 1.26 µg·h/mL; Vd/F [21]: 344 L; AUC(0-t) [22]: 2.8 µg·h/mL; AUC(0-inf) (both sexes, human, plasma, po, 90 mg, 90 mg single oral dose, Ar Mean, read-out: AUC(0-inf)): 3.73 µg·h/mL; Vd/F [22]: 365 L; AUC(0-t) [23]: 2.79 µg·h/mL; AUC(0-inf) (both sexes, human, plasma, po, 90 mg, 90 mg single oral dose, Geo Mean, read-out: AUC(0-inf)): 3.7 µg·h/mL; Vd/F [23]: 358 L; AUC(0-t) [24]: 5.91 µg·h/mL; AUC(0-inf) (both sexes, human, plasma, po, 180 mg, 180 mg single oral dose, Ar Mean, read-out: AUC(0-inf)): 7.11 µg·h/mL; Vd/F [24]: 321 L; AUC(0-t) [25]: 5.88 µg·h/mL; AUC(0-inf) (both sexes, human, plasma, po, 180 mg, 180 mg single oral dose, Geo Mean, read-out: AUC(0-inf)): 7.09 µg·h/mL; Vd/F [25]: 317 L; AUC(0-t) [26]: 11.9 µg·h/mL; AUC(0-inf) (both sexes, human, plasma, po, 360 mg, 360 mg single oral dose, Ar Mean, read-out: AUC(0-inf)): 13.8 µg·h/mL; Vd/F [26]: 309 L; AUC(0-t) [27]: 11.8 µg·h/mL; AUC(0-inf) (both sexes, human, plasma, po, 360 mg, 360 mg single oral dose, Geo Mean, read-out: AUC(0-inf)): 13.7 µg·h/mL; Vd/F [27]: 308 L; AUC(0-t) [28]: 29.1 µg·h/mL; AUC(0-inf) (both sexes, human, plasma, po, 720 mg, 720 mg single oral dose, Ar Mean, read-out: AUC(0-inf)): 32.9 µg·h/mL; Vd/F [28]: 260 L; AUC(0-t) [29]: 28.9 µg·h/mL; AUC(0-inf) (both sexes, human, plasma, po, 720 mg, 720 mg single oral dose, Geo Mean, read-out: AUC(0-inf)): 32.8 µg·h/mL; Vd/F [29]: 259 L; AUC(0-t) [30]: 38.7 µg·h/mL; AUC(0-inf) (both sexes, human, plasma, po, 1000 mg, 1000 mg single oral dose, Ar Mean, read-out: AUC(0-inf)): 43.1 µg·h/mL; Vd/F [30]: 299 L; AUC(0-t) [31]: 38.5 µg·h/mL; AUC(0-inf) (both sexes, human, plasma, po, 1000 mg, 1000 mg single oral dose, Geo Mean, read-out: AUC(0-inf)): 42.8 µg·h/mL; Vd/F [31]: 290 L
